Key:
[1] = tested on: LDLR−/− mice fed a HFD; assay: Atherosclerosis model, LDLR-/- mice on high fat diet treated with Nutlin-3A; type: in vivo, mouse
Source text: Schematics of two atherosclerosis mouse models are presented in FIGS. 43A-B. The study illustrated in FIG. 43A assessed the extent to which clearance of senescent cells from plaques in LDLR^−/− mice with Nutlin-3A reduces plaque load. Two groups of LDLR^−/− mice (10 weeks) are fed a high fat diet (HFD) (Harlan Teklad TD.88137) having 42% calories from fat, beginning at Week 0 and throughout the study. Two groups of LDLR^−/− mice (10 weeks) are fed normal chow (−HFD). From weeks 0-2, one group of HFD mice and −HFD mice are treated with Nutlin-3A (25 mg/kg, intraperitoneally). One treatment cycle is 14 days treatment, 14 days off. Vehicle is administered to one group of HFD mice and one group of −HFD mice. At week 4 (timepoint 1), one group of mice are sacrificed and to assess presence of senescent cells in the plaques. For the some of the remaining mice, Nutlin-3A and vehicle administration is repeated from weeks 4-6. At week 8 (timepoint 2), the mice are sacrificed and to assess presence of senescent cells in the plaques. The remaining mice are treated with Nutlin-3A or vehicle from weeks 8-10. At week 12 (timepoint 3), the mice are sacrificed and to assess the level of plaque and the number of senescent cells in the plaques.
Plasma lipid levels were measured in LDLR^−/− mice fed a HFD and treated with Nutlin-3A or vehicle at timepoint 1 as compared with mice fed a −HFD (n=3 per group). Plasma was collected mid-afternoon and analyzed for circulating lipids and lipoproteins.
At the end of timepoint 1, LDLR^−/− mice fed a HFD and treated with Nutlin-3A or vehicle were sacrificed (n=3, all groups), and the aortic arches were dissected for RT-PCR analysis of SASP factors and senescent cell markers. Values were normalized to GAPDH and expressed as fold-change versus age-matched, vehicle-treated LDLR^−/− mice on a normal diet.
At the end of timepoint 2, LDLR^−/− mice fed a HFD and treated with Nutlin-3A or vehicle (n=3 for all groups) were sacrificed, and aortic arches were dissected for RT-PCR analysis of SASP factors and senescent cell markers. Values were normalized to GAPDH and expressed as fold-change versus age-matched, vehicle-treated LDLR^−/− mice on a normal diet.
At the end of timepoint 3, LDLR^−/− mice fed a HFD and treated with Nutlin-3A or vehicle (n=3 for all groups) were sacrificed, and aortas were dissected and stained with Sudan IV to detect the presence of lipid. Body composition of the mice was analyzed by MRI, and circulating blood cells were counted by Hemavet. […] As shown in FIGS. 48A-B, the platelet and lymphocyte counts were equivalent between the Nutlin-3A and vehicle treated mice.

[2] = tested on: doxorubicin-induced senescent foreskin fibroblasts (HCA2) and aortic endothelial cells (Endo Aort); assay: Cell count survival assay of Nutlin-3a on doxorubicin-induced senescent cells; type: cell-based; conditions: doxorubicin 250 nM 24 h; HCA2 9 days, aortic endothelial cells 11 days of Nutlin-3a
Protocol: (§1) Foreskin fibroblast cell lines HCA2 and BJ, lung fibroblast cell line IMR90, and mouse embryonic fibroblasts were seeded in six-well plates and induced to senesce with 10 Gy of ionizing radiation (IR) or a 24 hr treatment with doxorubicin (Doxo). Senescent phenotype was allowed to develop for at least 7 days, at which point a cell count was made to determine the baseline number of cells. Nutlin-3a treatment was then initiated for a period of at least 9 days. Media alone or media with drug as appropriate was refreshed at least every three days. At the end of the assay time period, cells are counted. Each condition was seeded in three plate wells and counted independently. Initial cell count serves as a control to determine the induction of senescence, as compared to the last day count without nutlin treatment. Initial non-senescent cell count serves as a proxy to determine Nutlin-3a toxicity.
Foreskin fibroblasts (HCA2) and aortic endothelial cells (Endo Aort) were treated with doxorubicin (250 nM) for one day (24 hours) to induce senescence (see FIG. 1). Eight days following doxorubicin treatment, Nutlin-3a treatment was initiated. HCA2 cells were exposed to Nutlin-3a for 9 days, and aortic endothelial cells were exposed to Nutlin-3a for 11 days. […] Percent survival was calculated as [cell count on the last day of Nutlin-3a treatment/initial cell count on first day of Nutlin-3a treatment].

[3] = tested on: senescent mouse embryonic fibroblasts (MEF); assay: Cell count survival assay of Nutlin-3a on irradiation-induced senescent MEFs; type: cell-based; conditions: 10 Gy irradiated MEF; Nutlin-3a 0, 2.5, 10 μM for 9 days
Protocol: as §1
Foreskin fibroblast cell lines HCA2 and BJ, lung fibroblast cell line IMR90, and mouse embryonic fibroblasts were exposed to 10 Gy of ionizing radiation (IR) to induce senescence. […] Percent survival was calculated as [cell count on day 9 of Nutlin-3a treatment/initial cell count on first day of Nutlin-3a treatment].

[4] = tested on: LDLR−/−/3MR double transgenic mice; assay: Atherosclerosis model, LDLR-/-/3MR mice, 100 day ganciclovir treatment period; type: in vivo, mouse
Protocol: The impact of clearance of senescent cells on the stability and size of mature atherosclerotic plaques was studied in LDLR^−/− MR double transgenic mice. From 10 weeks of age, LDLR^−/− MR double transgenic mice (10 weeks) and LDLR^−/− single transgenic mice (control) were fed a high fat diet (Harlan Teklad TD.88137) having 42% calories from fat beginning at Week 0 until Week 12.5, when the mice were switched to normal chow diet. Both groups of mice were treated with ganciclovir from week 12.5 over the next 100 days, with each treatment cycle comprising 5 days of ganciclovir (25 mg/kg intraperitoneally daily) and 14 days off. At the end of the 100 day treatment period, the mice were sacrificed, plasma and tissues were collected, and atherosclerosis was quantitated. Descending aortas were dissected and stained with Sudan IV to visualize the plaque lipids. […] Plaques from ganciclovir-treated LDLR^−/− control and LDLR^−/− MR mice (see dashed circled plaques in FIGS. 55A-B, respectively) were harvested and cut into cross-sections and stained with […] the general architecture of the atherosclerotic plaques. “#” indicates fat located on the outside of the aorta (see FIG. 55A). The plaques marked with an “*” and “*” in FIGS. 55A and B, respectively, are shown as stained cross-sections in FIGS. 55B and D, respectively. […] The plaque from the control mice has identifiable “lipid pockets” accumulating within. […] Disruption or tear in the cap of a lipid-rich plaque is a trigger for coronary events through exposure of plaque thrombogenic components to platelets and clotting components of the blood. Plaques that grow more rapidly as a result of rapid lipid deposition and have thin fibrin caps are prone to rupture. Slowly growing plaques with mature fibrin caps tend to stabilize and are not prone to rupture. Taken together, these experiments indicate that removal of senescent cells may affect atherosclerotic plaque architecture and have a stabilizing effect.

Row | SMILES | expression of SASP factors and senescent cell markers in aortic arch ([1]; after 1 treatment cycle (25 mg/kg ip, 14 days on, 14 days off)) | expression of SASP factors and senescent cell markers in aortic arch ([1]; multiple treatment cycles (timepoint 2)) | platelet and lymphocyte counts versus vehicle ([1]; timepoint 3) | mass and body fat composition ([1]; timepoint 3, HFD) | reduction of plaques in the descending aorta ([1]; timepoint 3, three treatment cycles, Sudan IV staining) [%] | sensitivity of doxorubicin-induced senescent cells (percent survival) [2] | cell survival of senescent MEF (percent survival) [3] | % of the aorta covered in plaques ([4]; area of Sudan IV staining, versus LDLR−/− control mice) | atherosclerotic plaques in descending aorta (Sudan IV staining) ([4]; cycles of 5 days 25 mg/kg ip daily, 14 days off, 100 days) | plaque morphology ([4]; stained cross-sections)
1 | COc1ccc(C2=N[C@@H](c3ccc(Cl)cc3)[C@@H](c3ccc(Cl)cc3)N2C(=O)N2CCNC(=O)C2)c(OC(C)C)c1 [Nutlin-3a] | reduced expression of several SASP factors and senescent cell markers | reduced expression of most markers | equivalent | decreased mass and body fat composition | ~45 | sensitive | reduced cell survival | – | – | –
2 | Nc1nc(O)c2ncn(COC(CO)CO)c2n1 [ganciclovir] | – | – | – | – | – | – | – | significantly lower | fewer atherosclerotic plaques with less intense staining | presence of a thick fibrin cap and the absence of lipid pockets
